Results: ChEMBL document CHEMBL5154807, “Design and development of photoswitchable DFG-Out RET kinase inhibitors” (Eur J Med Chem, 2022)

Columns and labels:
[1] = molecular target: T1, Proto-oncogene tyrosine-protein kinase receptor Ret (Homo sapiens, UniProt P07949); test: Inhibition of human RET kinase using IGF1Rtide as substrate incubated for 40 mins and measured by ADP-Glo assay
[2] = molecular target: T1, Proto-oncogene tyrosine-protein kinase receptor Ret; test: Inhibition of full-length RET kinase expressed in human HEK293 cells and measured by NanoBRET assay; assay type: cell-based
[3] = Thermal stability of compound in DMSO assessed as half-life; assay type: physicochemical
[4] = Thermal stability of compound in water assessed as half-life; assay type: physicochemical
[5] = Drug degradation in 10 mM GSH after 20 hrs measured by LC-MS analysis; assay type: ADME; conditions: 10000 µM

T1 sequence (P07949 whole entry): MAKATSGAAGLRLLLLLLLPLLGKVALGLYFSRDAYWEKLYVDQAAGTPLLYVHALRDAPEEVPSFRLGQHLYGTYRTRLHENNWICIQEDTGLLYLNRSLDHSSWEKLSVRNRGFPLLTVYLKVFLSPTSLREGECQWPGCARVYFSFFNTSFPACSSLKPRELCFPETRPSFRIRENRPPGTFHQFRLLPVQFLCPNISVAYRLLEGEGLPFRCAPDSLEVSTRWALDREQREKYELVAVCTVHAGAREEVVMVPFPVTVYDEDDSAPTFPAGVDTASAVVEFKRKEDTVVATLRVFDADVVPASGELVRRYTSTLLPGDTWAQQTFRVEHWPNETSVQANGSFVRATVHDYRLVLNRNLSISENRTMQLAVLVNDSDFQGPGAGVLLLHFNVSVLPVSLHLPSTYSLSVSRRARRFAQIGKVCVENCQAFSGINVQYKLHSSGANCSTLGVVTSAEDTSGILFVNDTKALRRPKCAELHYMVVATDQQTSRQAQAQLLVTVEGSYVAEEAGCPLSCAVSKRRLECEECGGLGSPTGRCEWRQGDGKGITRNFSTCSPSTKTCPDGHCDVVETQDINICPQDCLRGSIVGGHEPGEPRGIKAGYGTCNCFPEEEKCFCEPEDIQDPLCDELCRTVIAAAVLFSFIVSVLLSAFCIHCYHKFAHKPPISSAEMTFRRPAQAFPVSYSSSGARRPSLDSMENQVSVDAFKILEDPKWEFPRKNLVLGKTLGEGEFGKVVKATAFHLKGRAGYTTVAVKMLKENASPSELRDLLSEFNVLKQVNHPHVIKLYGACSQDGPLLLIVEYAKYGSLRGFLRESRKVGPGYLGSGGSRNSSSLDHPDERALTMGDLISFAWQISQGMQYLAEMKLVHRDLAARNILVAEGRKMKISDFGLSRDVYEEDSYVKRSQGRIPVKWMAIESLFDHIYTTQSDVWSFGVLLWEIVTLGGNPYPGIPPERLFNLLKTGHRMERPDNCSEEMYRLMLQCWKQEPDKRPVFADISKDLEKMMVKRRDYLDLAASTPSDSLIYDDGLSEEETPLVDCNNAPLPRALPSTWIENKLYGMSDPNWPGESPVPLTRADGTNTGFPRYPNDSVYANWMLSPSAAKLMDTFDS

| Structure (SMILES) | IC50 [1] | also measured |
| --- | --- | --- |
| COc1c(/N=N\c2cccc(C(=O)Nc3ccc(CN4CCN(C)CC4)c(C(F)(F)F)c3)c2)cnc2ccccc12 | 0.363 µM | IC50 [2]: 3.89 µM |
| CCCc1cccc2cc(/C=C\c3cccc(C(=O)Nc4ccc(CN5CCN(C)CC5)c(C(F)(F)F)c4)c3)cnc12 | > 500 µM | – |
| CN1CCN(Cc2ccc(NC(=O)c3cccc(/C=C\c4cnc5ccccc5c4Nc4ccccc4)c3)cc2C(F)(F)F)CC1 | 49 µM | – |
| CN1CCN(Cc2ccc(NC(=O)c3cccc(/N=N/c4cnc5[nH]ccc5c4)c3)cc2C(F)(F)F)CC1 | 0.003 µM | half-life [3]: 15.7 days; half-life [4]: 26.2 days; Stability [5]: Stable |
| CN1CCN(Cc2ccc(NC(=O)c3ccc(F)c(/N=N\c4cnc5ccccc5c4)c3F)cc2C(F)(F)F)CC1 | 0.017 µM | half-life [4]: 1.58 days |
| CC(C)n1nc(-c2ccc(NC(=O)Nc3cc(C(F)(F)F)ccc3F)cc2)c2c(N)ncnc21 | 0.0013 µM | – |
| Cc1cccc2cc(/C=C/c3cccc(C(=O)Nc4ccc(CN5CCN(C)CC5)c(C(F)(F)F)c4)c3)cnc12 | 0.257 µM | – |
| Cc1cccc2cc(/C=C\c3cccc(C(=O)Nc4ccc(CN5CCN(C)CC5)c(C(F)(F)F)c4)c3)cnc12 | 12.6 µM | – |
| CC(C)c1cccc2cc(/C=C\c3cccc(C(=O)Nc4ccc(CN5CCN(C)CC5)c(C(F)(F)F)c4)c3)cnc12 | > 500 µM | – |
| CN1CCN(Cc2ccc(NC(=O)c3cccc(/N=N\c4cnc5ccccc5c4)c3)cc2C(F)(F)F)CC1 | 0.015 µM | – |
| CN1CCN(Cc2ccc(NC(=O)c3cccc(/N=N/c4cnc5ccccc5c4)c3)cc2C(F)(F)F)CC1 | 0.0095 µM | half-life [3]: 8.67 days; half-life [4]: 9.04 days; Stability [5]: Stable |
| CN1CCN(Cc2ccc(NC(=O)c3ccc(F)c(/N=N/c4cnc5ccccc5c4)c3F)cc2C(F)(F)F)CC1 | 0.011 µM | half-life [3]: 32.5 days; half-life [4]: 1.58 days; Stability [5]: Stable |
| CN1CCN(Cc2ccc(NC(=O)c3cccc(/C=C/c4cnc5ccccc5c4Nc4ccccc4)c3)cc2C(F)(F)F)CC1 | 2.3 µM | – |
| CCc1cccc2cc(/C=C/c3cccc(C(=O)Nc4ccc(CN5CCN(C)CC5)c(C(F)(F)F)c4)c3)cnc12 | 1.7 µM | – |
| CCc1cccc2cc(/C=C\c3cccc(C(=O)Nc4ccc(CN5CCN(C)CC5)c(C(F)(F)F)c4)c3)cnc12 | 25 µM | – |
| CC(C)c1cccc2cc(/C=C/c3cccc(C(=O)Nc4ccc(CN5CCN(C)CC5)c(C(F)(F)F)c4)c3)cnc12 | 9.8 µM | – |
| CCCc1cccc2cc(/C=C/c3cccc(C(=O)Nc4ccc(CN5CCN(C)CC5)c(C(F)(F)F)c4)c3)cnc12 | 5.6 µM | – |

Continued, in another order:

| IC50 [1] | Structure (SMILES) | also measured |
| --- | --- | --- |
| 0.098 µM | CN1CCN(Cc2ccc(NC(=O)c3cccc(/C=C/c4cnc5ccccc5c4N(C)C)c3)cc2C(F)(F)F)CC1 | – |
| 1.8 µM | COc1c(/C=C\c2cccc(C(=O)Nc3ccc(CN4CCN(C)CC4)c(C(F)(F)F)c3)c2)cnc2ccccc12 | – |
| 2.2 µM | CN1CCN(Cc2ccc(NC(=O)c3cccc(/C=C\c4cnc5ccccc5c4N4CCCC4)c3)cc2C(F)(F)F)CC1 | – |
| 0.024 µM | COc1c(/N=N/c2cccc(C(=O)Nc3ccc(CN4CCN(C)CC4)c(C(F)(F)F)c3)c2)cnc2ccccc12 | IC50 [2]: 0.92 µM; half-life [3]: 12.6 days; half-life [4]: 16.8 days |
| 0.066 µM | CN1CCN(Cc2ccc(NC(=O)c3cccc(/C=C/c4cnc5ccccc5c4N4CCCC4)c3)cc2C(F)(F)F)CC1 | – |
| 2.4 µM | CN1CCN(Cc2ccc(NC(=O)c3cccc(/C=C\c4cnc5ccccc5c4N(C)C)c3)cc2C(F)(F)F)CC1 | – |
| 0.9 µM | CN1CCN(Cc2ccc(NC(=O)c3cccc(/C=C\c4cnc5ccccc5c4)c3)cc2C(F)(F)F)CC1 | – |
| 0.0124 µM | COc1c(/C=C/c2cccc(C(=O)Nc3ccc(CN4CCN(C)CC4)c(C(F)(F)F)c3)c2)cnc2ccccc12 | – |
| 0.0078 µM | CN1CCN(Cc2ccc(NC(=O)c3cccc(/C=C/c4cnc5ccccc5c4)c3)cc2C(F)(F)F)CC1 | – |
